US20260042743A1, “SUBSTITUTED BENZIMIDAZOLES FOR TREATING VIRAL DISEASES” (COUNCIL OF SCIENTIFIC AND INDUSTRIAL RESEARCH, priority 2022, published 2026)

Tested on: SARS-CoV-2
Experiment: cell-based anti-viral assay using Vero E6 cell line, viral RNA by qRT-PCR
Conditions: Vero E6 cells, 48 h; for ΔCt (1 μM) / inhibition at 1 µM: 1 μM compound; for ΔCt (1 μM) / ΔCt (5 μM): increase in Ct vs no-drug control; for ΔCt (5 μM) / inhibition at 5 µM: 5 μM compound; for inhibition at 1 µM / inhibition at 5 µM: Severe acute respiratory syndrome coronavirus 2, Vero C1008, calculated from ΔCt; for inhibition at 1 µM: read-out: % SARS-CoV-2 Inactivation (1 μM); for inhibition at 5 µM: read-out: % SARS-CoV-2 Inactivation (5 μM)

Compound | ΔCt (1 μM) | ΔCt (5 μM) | inhibition at 1 µM | inhibition at 5 µM
FC(F)(F)c1cc(C(F)(F)F)c2nc(Nc3ccc4ccccc4c3)[nH]c2c1 [Example 17, N-(naphthalen-2-yl)-5,7-bis(trifluoromethyl)-1H-benzo[d]imidazol-2-amine] | 3 | 1.5 | 90% | < 3%
FC(F)(F)Oc1ccc2nc(Nc3cccc(C(F)(F)F)c3)[nH]c2c1 [Example 30, 6-(trifluoromethoxy)-N-(3-(trifluoromethyl)phenyl)-1H-benzo[d]imidazol-2-amine] | 1.1 | 11.1 | < 3% | 99.9%
Fc1cc(F)cc(Nc2nc3c(C(F)(F)F)cc(C(F)(F)F)cc3[nH]2)c1 [Example 26, N-(3,5-difluorophenyl)-4,6-bis(trifluoromethyl)-1H-benzo[d]imidazol-2-amine] | 3.4 | 9.4 | 90% | > 99%
FC(F)(F)c1cc(Nc2nc3ccc(C(F)(F)F)cc3[nH]2)cc(C(F)(F)F)c1 [Example 31, N-(3,5-bis(trifluoromethyl)phenyl)-6-(trifluoromethyl)-1H-benzo[d]imidazol-2-amine] | 5.3 | 9 | > 95% | > 99%
FC(F)(F)c1cc(C(F)(F)F)c2nc(N3CCCCC3)[nH]c2c1 [Example 16, 2-(piperidin-1-yl)-4,6-bis(trifluoromethyl)-1H-benzo[d]imidazole] | 0.8 | 1 | < 3% | < 3%
FC(F)(F)c1cc(Nc2nc3c(C(F)(F)F)cc(C(F)(F)F)cc3[nH]2)cc(C(F)(F)F)c1 [Example 1, N-(3,5-bis(trifluoromethyl)phenyl)-4,6-bis(trifluoromethyl)-1H-benzo[d]imidazol-2-amine] | 5.7 | 12 | > 95% | > 99.9%
FC(F)(F)Oc1cccc(Nc2nc3c(C(F)(F)F)cc(C(F)(F)F)cc3[nH]2)c1 [Example 22, N-(3-(trifluoromethoxy)phenyl)-4,6-bis(trifluoromethyl)-1H-benzo[d]imidazol-2-amine] | 3.3 | 7.4 | 90% | 99%
CC1(Nc2nc3c(C(F)(F)F)cc(C(F)(F)F)cc3[nH]2)CCC1 [Example 21, N-(1-methylcyclobutyl)-4,6-bis(trifluoromethyl)-1H-benzo[d]imidazol-2-amine] | 3.6 | 9.3 | > 90% | > 99%
CN(c1cc(C(F)(F)F)cc(C(F)(F)F)c1)c1nc2c(C(F)(F)F)cc(C(F)(F)F)cc2[nH]1 [Example 41, N-(3,5-bis(trifluoromethyl)phenyl)-N-methyl-4,6-bis(trifluoromethyl)-1H-benzo[d]imidazol-2-amine] | 3.8 | 13.4 | > 90% | > 99.9%
Fc1ccccc1Nc1nc2c(C(F)(F)F)cc(C(F)(F)F)cc2[nH]1 [Example 23, N-(2-fluorophenyl)-4,6-bis(trifluoromethyl)-1H-benzo[d]imidazol-2-amine] | −0.3 | 5.2 | < 3% | > 95%
CC(C)Nc1nc2c(C(F)(F)F)cc(C(F)(F)F)cc2[nH]1 [Example 15, N-isopropyl-4,6-bis(trifluoromethyl)-1H-benzo[d]imidazol-2-amine] | 3.1 | 4.2 | 90% | > 90%
COc1ccc(Nc2nc3cc(F)c(F)cc3[nH]2)cc1Br [Example 9, N-(3-bromo-4-methoxyphenyl)-5,6-difluoro-1H-benzo[d]imidazol-2-amine] | −1.1 | 1 | < 3% | < 3%
CN(c1cccc(C(F)(F)F)c1)c1nc2c(C(F)(F)F)cc(C(F)(F)F)cc2[nH]1 [Example 40, N-methyl-4,6-bis(trifluoromethyl)-N-(3-(trifluoromethyl)phenyl)-1H-benzo[d]imidazol-2-amine] | 5 | 12.2 | > 95% | > 99.9%
Cn1c(Nc2ccccc2)nc2cc(F)c(F)cc21 [Example 38, 5,6-difluoro-1-methyl-N-phenyl-1H-benzo[d]imidazol-2-amine] | 0.4 | −0.1 | < 3% | < 3%
C[C@@H](Nc1nc2c(C(F)(F)F)cc(C(F)(F)F)cc2[nH]1)c1cccc2ccccc12 [Example 19, (R)—N-(1-(naphthalen-1-yl)ethyl)-4,6-bis(trifluoromethyl)-1H-benzo[d]imidazol-2-amine] | 1.9 | 1.9 | < 3% | < 3%
FC(F)(F)c1cc(C(F)(F)F)c2nc(Nc3ccccc3)[nH]c2c1 [Example 3, N-phenyl-4,6-bis(trifluoromethyl)-1H-benzo[d]imidazol-2-amine] | 1.8 | 3.3 | < 3% | 90%
Fc1cc2nc(Nc3ccc(C(F)(F)F)cc3)[nH]c2cc1F [Example 12, 5,6-difluoro-N-(4-(trifluoromethyl)phenyl)-1H-benzo[d]imidazol-2-amine] | 2.4 | 3.5 | < 3% | 90%
FC(F)(F)c1ccc(Nc2nc3c(C(F)(F)F)cccc3[nH]2)cc1 [Example 36, 4-(trifluoromethyl)-N-(4-(trifluoromethyl)phenyl)-1H-benzo[d]imidazol-2-amine] | 12 | 12 | > 99.9% | > 99.9%
CN(c1cccc(C(F)(F)F)c1)c1nc2cccc(C(F)(F)F)c2[nH]1 [Example 42, N-methyl-7-(trifluoromethyl)-N-(3-(trifluoromethyl)phenyl)-1H-benzo[d]imidazol-2-amine] | 1 | 2.1 | < 3% | < 3%
FC(F)(F)c1cc(Nc2nc3c(C(F)(F)F)cccc3[nH]2)cc(C(F)(F)F)c1 [Example 34, N-(3,5-bis(trifluoromethyl)phenyl)-4-(trifluoromethyl)-1H-benzo[d]imidazol-2-amine] | 13.1 | 15.1 | > 99.9% | 100%
FC(F)(F)c1cccc(Nc2nc3c(C(F)(F)F)cccc3[nH]2)c1 [Example 35, 4-(trifluoromethyl)-N-(3-(trifluoromethyl)phenyl)-1H-benzo[d]imidazol-2-amine] | 1.7 | 7.5 | < 3% | 99%
FC(F)(F)c1cc(C(F)(F)F)c2nc(NCc3ccccc3)[nH]c2c1 [Example 6, N-benzyl-4,6-bis(trifluoromethyl)-1H-benzo[d]imidazol-2-amine] | 2 | 1.6 | < 3% | < 3%
